Results published in ChEMBL document CHEMBL5338815 (J Med Chem, 2023).
Active and inactive are the calls of the source. The rule behind the calls is not given here.

How the values were obtained:
[1] = target: T1, Histone-lysine N-methyltransferase EHMT2 (Homo sapiens, UniProt Q96KQ7); assay: Inhibition of G9a (unknown origin) by AlphaLISA assay
T1 sequence (Q96KQ7 whole entry): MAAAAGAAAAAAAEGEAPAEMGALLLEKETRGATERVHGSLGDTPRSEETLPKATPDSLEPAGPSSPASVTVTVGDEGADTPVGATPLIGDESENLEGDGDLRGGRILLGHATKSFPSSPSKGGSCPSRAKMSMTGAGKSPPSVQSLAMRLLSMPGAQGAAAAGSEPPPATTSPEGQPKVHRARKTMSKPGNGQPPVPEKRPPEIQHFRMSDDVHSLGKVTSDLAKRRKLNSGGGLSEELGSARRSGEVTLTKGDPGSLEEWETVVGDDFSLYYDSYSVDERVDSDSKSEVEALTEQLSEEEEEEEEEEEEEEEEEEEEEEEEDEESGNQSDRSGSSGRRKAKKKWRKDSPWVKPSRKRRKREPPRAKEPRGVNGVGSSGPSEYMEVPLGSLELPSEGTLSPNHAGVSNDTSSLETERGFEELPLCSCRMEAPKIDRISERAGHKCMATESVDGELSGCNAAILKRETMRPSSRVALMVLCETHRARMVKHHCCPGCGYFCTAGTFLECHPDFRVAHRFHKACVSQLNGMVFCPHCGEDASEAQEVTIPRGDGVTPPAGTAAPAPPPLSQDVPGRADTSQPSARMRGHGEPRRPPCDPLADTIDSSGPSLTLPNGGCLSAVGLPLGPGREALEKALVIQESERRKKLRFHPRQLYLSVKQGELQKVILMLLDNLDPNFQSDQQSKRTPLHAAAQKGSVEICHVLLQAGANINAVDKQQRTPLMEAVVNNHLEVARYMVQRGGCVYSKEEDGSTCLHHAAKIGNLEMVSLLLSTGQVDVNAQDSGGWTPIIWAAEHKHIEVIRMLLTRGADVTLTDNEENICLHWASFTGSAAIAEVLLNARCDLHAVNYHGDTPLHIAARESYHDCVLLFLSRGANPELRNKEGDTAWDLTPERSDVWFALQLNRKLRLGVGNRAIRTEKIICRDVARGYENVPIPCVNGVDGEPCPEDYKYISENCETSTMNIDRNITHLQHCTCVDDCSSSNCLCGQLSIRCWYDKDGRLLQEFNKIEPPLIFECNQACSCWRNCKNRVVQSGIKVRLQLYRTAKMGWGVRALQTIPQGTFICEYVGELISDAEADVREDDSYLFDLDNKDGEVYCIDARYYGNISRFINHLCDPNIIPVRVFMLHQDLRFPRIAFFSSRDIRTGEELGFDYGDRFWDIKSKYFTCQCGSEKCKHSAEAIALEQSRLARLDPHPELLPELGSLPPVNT

MDA-MB-231 [2] = assay: Antiproliferative activity against human MDA-MB-231 cells assessed as cell viability measured after 24 hrs by CCK-8 assay; format: functional, cell-based; details: MDA-MB-231, 24 h
PANC-1 = assay: Antiproliferative activity against human PANC-1 cells assessed as cell viability measured after 24 hrs by CCK-8 assay; format: functional, cell-based; details: PANC-1, 24 h
[3] = target: T2, Histone-lysine N-methyltransferase EHMT1 (Homo sapiens, UniProt Q9H9B1); assay: Inhibition of GLP (unknown origin)
T2 sequence (Q9H9B1 whole entry): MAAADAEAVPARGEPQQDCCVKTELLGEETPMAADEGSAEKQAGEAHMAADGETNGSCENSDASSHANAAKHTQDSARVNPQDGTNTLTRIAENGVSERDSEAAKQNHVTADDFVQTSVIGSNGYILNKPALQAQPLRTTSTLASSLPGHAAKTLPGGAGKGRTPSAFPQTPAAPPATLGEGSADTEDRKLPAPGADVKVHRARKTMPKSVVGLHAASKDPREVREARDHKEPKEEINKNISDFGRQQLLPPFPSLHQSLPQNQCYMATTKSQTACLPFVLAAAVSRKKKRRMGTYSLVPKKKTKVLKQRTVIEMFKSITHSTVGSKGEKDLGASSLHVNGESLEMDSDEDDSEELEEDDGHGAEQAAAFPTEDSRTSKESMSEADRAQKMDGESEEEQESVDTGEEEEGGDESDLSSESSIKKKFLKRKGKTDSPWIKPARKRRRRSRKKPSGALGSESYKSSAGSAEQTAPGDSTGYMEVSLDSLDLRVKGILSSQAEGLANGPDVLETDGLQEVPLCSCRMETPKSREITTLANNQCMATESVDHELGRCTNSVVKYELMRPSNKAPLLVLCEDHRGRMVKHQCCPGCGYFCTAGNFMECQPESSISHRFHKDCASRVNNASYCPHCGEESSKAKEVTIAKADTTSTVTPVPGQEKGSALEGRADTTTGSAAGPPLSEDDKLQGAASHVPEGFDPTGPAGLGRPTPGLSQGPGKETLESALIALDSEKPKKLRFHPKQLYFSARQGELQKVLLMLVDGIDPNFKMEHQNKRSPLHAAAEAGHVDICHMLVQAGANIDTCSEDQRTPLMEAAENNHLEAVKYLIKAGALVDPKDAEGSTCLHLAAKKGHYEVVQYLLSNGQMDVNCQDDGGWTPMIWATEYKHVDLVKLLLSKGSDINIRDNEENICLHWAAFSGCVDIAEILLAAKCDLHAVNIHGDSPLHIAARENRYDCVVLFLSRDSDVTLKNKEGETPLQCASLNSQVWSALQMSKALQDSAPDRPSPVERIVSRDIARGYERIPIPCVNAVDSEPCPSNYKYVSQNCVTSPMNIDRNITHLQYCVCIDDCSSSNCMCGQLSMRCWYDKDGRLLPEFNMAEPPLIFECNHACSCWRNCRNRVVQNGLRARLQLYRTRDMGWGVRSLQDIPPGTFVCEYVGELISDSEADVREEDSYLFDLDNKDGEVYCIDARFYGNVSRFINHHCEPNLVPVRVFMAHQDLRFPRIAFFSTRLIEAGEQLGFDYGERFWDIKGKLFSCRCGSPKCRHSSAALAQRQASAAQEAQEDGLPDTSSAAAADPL

[4] = target: T1, Histone-lysine N-methyltransferase EHMT2; assay: Inhibition of human recombinant G9a using H3-SAM as substrate
[5] = target: T3, Histone-lysine N-methyltransferase EHMT2 (Homo sapiens) (UniProt Q96KQ7); assay: Binding affinity to G9a in human MDA-MB-231 cells assessed as protein stabilization at 37 to 41.7 degC at 10 uM incubated for 15 hrs in presence of G9a antibody by CETSA; format: cell-based
T3 sequence (whole entry): T1 sequence (Q96KQ7 whole entry)

MDA-MB-231 [6] = assay: Reduction in H3K9me2 level in human MDA-MB-231 cells at 10 uM by Western blot analysis; format: functional, cell-based; details: time 24-96 hrs, TDE = time-dependent effect
MDA-MB-231 [7] = assay: Reduction in H3K9me2 level in human MDA-MB-231 cells at 10 uM incubated for 48 hrs followed replaced with fresh medium measured after 24 hrs by Western blot analysis; format: functional, cell-based
[8] = Metabolic stability in mouse liver microsomes assessed as half life at 0.1 uM measured upto 60 mins by LC-MS/MS analysis; format: ADME, Microsome

Structure (SMILES): COc1cc2c(NC3CCN(C)CC3)cc(CNC(=O)CCl)nc2cc1OCCCN1CCCC1
- IC50 [1]: 1.7 nM

Structure (SMILES): C/C=C/C(=O)NCc1cc(NC2CCN(C)CC2)c2cc(OC)c(OCCCN3CCCC3)cc2n1
- IC50 [1]: 0.52 nM

Structure (SMILES): C=CC(=O)N(C)c1nc(NC2CCN(C(C)C)CC2)c2cc(OC)c(OCCCN3CCCC3)cc2n1
- IC50 [1]: 4.4 nM
- IC50 (MDA-MB-231 [2]): 9600 nM
- IC50 (PANC-1): 8220 nM

Structure (SMILES): C=CC(=O)N(C)c1nc(NC2CCN(CCC)CC2)c2cc(OC)c(OCCCN3CCCC3)cc2n1
- IC50 [1]: 3.9 nM
- IC50 (MDA-MB-231 [2]): 5480 nM
- IC50 (PANC-1): 4750 nM

Structure (SMILES): CCC(=O)NCc1cc(NC2CCN(C)CC2)c2cc(OC)c(OCCCN3CCCC3)cc2n1
- IC50 [1]: 0.71 nM

Structure (SMILES): COc1cc2c(NC3CCN(C)CC3)nc(CNC(=O)CC#N)nc2cc1OCCCN1CCCC1
- IC50 [1]: 80 nM

Structure (SMILES): CNc1nc2cc(OCCCN3CCCC3)c(OC)cc2n1C(C)C
- IC50 [3]: < 100 nM
- IC50 [4]: < 100 nM

Structure (SMILES): C=CC(=O)NCc1nc(NC2CCN(C)CC2)c2cc(OC)c(OCCCN3CCCC3)cc2n1
- IC50 [1]: 60 nM

Structure (SMILES): COc1cc2c(NC3CCN(C)CC3)nc(CNC(=O)C3(C#N)CC3)nc2cc1OCCCN1CCCC1
- IC50 [1]: 111 nM

Structure (SMILES): C=C(C)C(=O)NCc1nc(NC2CCN(C)CC2)c2cc(OC)c(OCCCN3CCCC3)cc2n1
- IC50 [1]: 116 nM

Structure (SMILES): C=CC(=O)N(C)c1nc(NCC2CCN(C)CC2)c2cc(OC)c(OCCCN3CCCC3)cc2n1
- IC50 [1]: 11 nM
- IC50 (MDA-MB-231 [2]): > 40000 nM
- IC50 (PANC-1): > 40000 nM

Structure (SMILES): C=CC(=O)NCc1cc(NC2CCN(C)CC2)c2cc(OC)c(OCCCN3CCCC3)cc2n1
- IC50 [1]: 0.49 nM

Structure (SMILES): CCC(=O)N(C)c1nc(NC2CCN(C)CC2)c2cc(OC)c(OCCCN3CCCC3)cc2n1
- IC50 [1]: 5.8 nM
- IC50 (MDA-MB-231 [2]): 9730 nM
- IC50 (PANC-1): 14800 nM
- Activity [5]: Active
- inhibition (MDA-MB-231 [6]): Tde
- inhibition (MDA-MB-231 [7]): inactive

Structure (SMILES): COc1cc2c(NC3CCN(C)CC3)nc(CNC(=O)/C=C/CN(C)C)nc2cc1OCCCN1CCCC1
- IC50 [1]: 7.6 nM

Structure (SMILES): C/C=C/C(=O)NCc1nc(NC2CCN(C)CC2)c2cc(OC)c(OCCCN3CCCC3)cc2n1
- IC50 [1]: 74 nM

Structure (SMILES): C=CC(=O)N(C)c1nc(NC2CCN(C3CCCCC3)CC2)c2cc(OC)c(OCCCN3CCCC3)cc2n1
- IC50 [1]: 3.51 nM
- IC50 (MDA-MB-231 [2]): 2230 nM
- IC50 (PANC-1): 2440 nM
- half-life at 0.1 µM [8]: 10 min

Structure (SMILES): CC#CC(=O)NCc1cc(NC2CCN(C)CC2)c2cc(OC)c(OCCCN3CCCC3)cc2n1
- IC50 [1]: 0.42 nM

Structure (SMILES): CCC(=O)NCc1nc(NC2CCN(C)CC2)c2cc(OC)c(OCCCN3CCCC3)cc2n1
- IC50 [1]: 64 nM

Structure (SMILES): CC#CC(=O)NCc1nc(NC2CCN(C)CC2)c2cc(OC)c(OCCCN3CCCC3)cc2n1
- IC50 [1]: 95 nM

Structure (SMILES): C=CC(=O)N(C)c1nc(NC2CCN(Cc3ccccc3)CC2)c2cc(OC)c(OCCCN3CCCC3)cc2n1
- IC50 [1]: 5.9 nM
- IC50 (MDA-MB-231 [2]): 460 nM
- IC50 (PANC-1): 520 nM
- half-life at 0.1 µM [8]: 4.72 min

Structure (SMILES): C=C(C)C(=O)NCc1cc(NC2CCN(C)CC2)c2cc(OC)c(OCCCN3CCCC3)cc2n1
- IC50 [1]: 0.53 nM

Structure (SMILES): COc1cc2c(NC3CCN(C)CC3)nc(CNC(=O)CCl)nc2cc1OCCCN1CCCC1
- IC50 [1]: 5.7 nM
